From patent US20220241316A1, “25-HYDROXYCHOLESTEROL (25HC), CRYAB AGGREGATION INHIBITOR, IS A NOVEL SENOLYTIC” (Buck Institute for Research on Aging, priority 2019, published 2022)
Entries after “also recorded” stand apart in the source; their conditions may differ.

Key:
[1] = target: T1, CRYAB protein (Homo sapiens, UniProt P02511); experiment: Inhibition of CRYAB protein aggregation; conditions: stated with reference to Example 1; no aggregation test described
T1 sequence (P02511 1-175): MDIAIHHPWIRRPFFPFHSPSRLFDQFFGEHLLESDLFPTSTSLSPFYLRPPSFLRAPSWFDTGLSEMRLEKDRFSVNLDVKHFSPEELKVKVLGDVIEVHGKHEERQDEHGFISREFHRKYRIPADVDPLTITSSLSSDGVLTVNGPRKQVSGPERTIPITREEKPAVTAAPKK

[2] = tested on: senescent cells; experiment: Evaluation of senolytic effects of 25HC, oxysterols and 25HC analogs in cell culture; assay type: cell-based; conditions: cell type not stated
Excerpt: Genetic knockdown of this gene kills senescent cells.
There are some commercially available analogs of 25HC such as oxysterols (Griffiths et al. (2019) Biochem Soc Trans., 47: 517-526).

[3] = tested on: senescent human fetal lung fibroblast (IMR-90); experiment: Cell viability assay (Cell Counting Kit-8) on NS and SEN IMR-90 cells; assay type: cell-based; conditions: treatment started immediately after removing DMSO/250 nM Doxo; 72 hrs; normalized to DMSO
Description: Panel A) Timeline for DMSO/250 nM Doxo treatment and early-time point timeline for 24(S)-HC and 27HC treatment on NS and SEN cells. 24(S)HC and 27HC treatment were started immediately after removing DMSO/Doxo. Panel B) and C) Cell viability assay were performed on NS and SEN cells treated with different concentrations of 24(S)HC and 27HC, respectively. 24(S)HC and 27HC treatment were done for 72 hrs. The cell viability was analyzed by Cell Counting Kit-8 according to the manufactures' protocol using Spectra Max 190 (Molecular Devices). The value was normalized to that of DMSO. (Mean+/−SE, n=3, *p<0.05, **p<0.01 and ***p<0.001 by student's t-test).

[4] = target: T1, CRYAB protein; conditions: from Makley et al. (2015) / Xu et al. (2017); cited from earlier work
[5] = tested on: senescent FAPs; experiment: Cell viability assay on NS and SEN FAPs treated with 25HC; assay type: cell-based, mouse; conditions: 25HC started immediately after removing DMSO/Doxo (early-time point); treatment total 5 days; normalized to 0 uM
Description: Panel A) Timeline for DMSO/Doxo treatment and early-time point timeline for 25HC treatment on NS and SEN cells. 25HC treatment was started immediately after removing DMSO/Doxo. Panel B) Cell viability assay was performed on NS and SEN cells treated with different concentrations of 25HC. 25HC treatment was done for total 5 days. The value was normalized to that of 0 uM. The average value of 0 μM is expressed as 100% (Mean+/−SE, n=3, **p<0.01 and ***p<0.001 by student's t-test vs NS).

[6] = tested on: senescent mDFs; experiment: Cell viability assay on NS and SEN mDFs treated with 25HC; assay type: cell-based, mouse; conditions: treatment 72 hrs
Description: (§1) Panel A) Timeline for DMSO/Doxo treatment and early-time point timeline for 25HC treatment on NS and SEN cells. 25HC treatment was started immediately after removing DMSO/Doxo. Panel B) Cell viability assay was performed on NS and SEN cells treated with different concentrations of 25HC. 25HC treatment was done for 72 hrs. (Mean+/−SD, n=3, *p<0.05, **p<0.01 vs 0 uM by student's t-test).
as §1, with “late-time” for “early-time”, “7 days” for “immediately”, “n=6, **p<0.01, ***p<0.001, **** p<0.0001,” for “n=3, *p<0.05, **p<0.01”

[7] = tested on: p16INK4a mRNA; experiment: qPCR of p16INK4a mRNA in Doxo treated FAPs; assay type: cell-based, mouse; conditions: 250 nM Doxo for 24 hours; normalized to β-actin, vs DMSO
Description: As shown, FAPs undergo senescence upon 250 nM of Doxo treatment for 24 hours (Day 0). The mRNA was extracted from DMSO treated NS or Doxo treated SEN FAPs at indicated time points and quantified by qPCR. The amount of mRNA was normalized to the level of β-actin. The graphs show the relative levels of p16INK4a mRNA for DMSO and Doxo treated samples. The average value of DMSO is expressed as 1 (Mean+/−SE, n=3, *p<0.05 by Dunnett's multiple comparisons test vs DMSO).

[8] = tested on: p16INK4a mRNA; experiment: qPCR of p16INK4a mRNA in Doxo treated mDFs; assay type: cell-based, mouse; conditions: 250 nM Doxo for 24 hours; day 1, 5, 14; normalized to β-actin, vs DMSO
Description: (§2) As shown, mDFs undergo senescence upon 250 nM of Doxo treatment for 24 hours (Day 0). Real-time quantitative PCR (qPCR) was performed on RNA samples isolated from DMSO treated NS (Non-Senescent) mDF cells or Doxo treated SEN (Senescent) mDF cells at day 1, 5, and 14 after Doxo treatment. The amount of mRNA was normalized to the level of β-actin (see, e.g., Demaria et al. (2017) Cancer Discovery, 2: 165-176; and references cited therein). Relative levels of p16INK4a mRNA for DMSO and Doxo treated mDFs was measured. The average value of DMSO is expressed as 1. (Mean+/−SE, n=4, **p<0.01, ****p<0.0001 by Dunnett's multiple comparisons test vs DMSO).

[9] = tested on: CRYAB mRNA; experiment: qPCR of CRYAB mRNA in Doxo treated mDFs; assay type: cell-based, mouse; conditions: Doxo treated SEN mDFs day 1, 5, 14; normalized to β-actin, vs DMSO
Description: as §2, with “Real-time” for “As shown, mDFs undergo senescence upon 250 nM of Doxo treatment for 24 hours (Day 0). Real-time”, “NS” for “NS (Non-Senescent)”, “SEN” for “SEN (Senescent)”, “CRYAB” for “p16INK4a”, “*p<0.05, ***p<0.001” for “**p<0.01, ****p<0.0001”

[10] = tested on: CRYAB mRNA; experiment: qPCR of CRYAB mRNA in Doxo treated FAPs; assay type: cell-based, mouse; conditions: 250 nM doxorubicin 24 hrs; normalized to β-actin, vs DMSO
Description: The cells were treated with 250 nM doxorubicin and incubated for 24 hrs (Day 0). The mRNA was extracted from DMSO treated NS or Doxo treated SEN FAPs at the indicated time points and quantified by qPCR. The amount of mRNA was normalized to the level of β-actin mRNA. The average value of DMSO is expressed as 1 (Mean+/−SE, n=3, **p<0.01 and ***p<0.001 by Dunnett's multiple comparisons test vs DMSO).

SMILES	Inhibition of CRYAB protein aggregation (as asserted in the description) [1]	Senolytic effect [2]	further results
C[C@@H](CCCC(C)(O)c1ccccc1)C1CCC2C3CC=C4C[C@H](O)CC[C@@]4(C)C3CC[C@]21C (relative stereo) [rel-(3R,10S,13S)-17-[(2S)-6-hydroxy-6-phenylheptan-2-yl]-10,13-dimethyl-2,3,4,7,8,9,10,11,12,13,14,15,16,17-tetradecahydro-1H-cyclopenta[a]phenanthren-3-ol]	effective inhibitors of CRYAB protein aggregation	novel senolytics	
C[C@H](CCCC(C)(C)O)[C@H]1CC[C@H]2[C@@H]3[C@H](O)C=C4C[C@@H](O)CC[C@]4(C)[C@H]3CC[C@]12C [7α,25-Dihydroxycholesterol]	effective inhibitors of CRYAB protein aggregation	novel senolytics	
CC(C)CCC[C@@H](C)[C@H]1CC[C@H]2[C@@H]3[C@H](O)C=C4C[C@@H](O)CC[C@]4(C)[C@H]3CC[C@]12C [7αHC, 7α-Hydroxycholesterol]	effective inhibitors of CRYAB protein aggregation	novel senolytics	
CC(C)CCC[C@@H](C)[C@H]1CC[C@H]2[C@@H]3[C@@H](O)C=C4C[C@@H](O)CC[C@]4(C)[C@H]3CC[C@]12C [7βHC, 7β-Hydroxycholesterol]	effective inhibitors of CRYAB protein aggregation	novel senolytics	
CC(C)CC[C@@H](O)[C@@H](C)[C@H]1CC[C@H]2[C@@H]3CC=C4C[C@@H](O)CC[C@]4(C)[C@H]3CC[C@]12C [22(R)HC, 22(R)-Hydroxycholesterol]	effective inhibitors of CRYAB protein aggregation	novel senolytics	
CC(C)[C@@H](O)CC[C@@H](C)[C@H]1CC[C@H]2[C@@H]3CC=C4C[C@@H](O)CC[C@]4(C)[C@H]3CC[C@]12C [24(S)HC, 24(S)-Hydroxycholesterol]	effective inhibitor of CRYAB protein aggregation	novel senolytics	Cell viability of NS and SEN IMR-90 cells, early-time point [3]: specifically kill senescent human fetal lung fibroblast; also recorded: specifically kill senescent IMR-90 cells
C[C@H](CCCC(C)(C)O)[C@H]1CC[C@H]2[C@@H]3CC=C4C[C@@H](O)CC[C@]4(C)[C@H]3CC[C@]12C [25HC, 25-hydroxycholesterol]	effective inhibitor of CRYAB protein aggregation	novel senolytic agent	Inhibition of CRYAB / CRYAB protein aggregation (literature) [4]: effective inhibitor of CRYAB; Cell viability of NS and SEN FAPs [5]: specifically kills senescent FAPs; Cell viability of NS and SEN mDFs, late-time point ([6]; 25HC started 7 days after removing DMSO/Doxo): specifically kills senescent mDFs at late-timepoint; Cell viability of NS and SEN mDFs, early-time point ([6]; 25HC started immediately after removing DMSO/Doxo): specifically kills senescent mDFs at early-timepoint
CC(=O)CCC[C@@H](C)[C@H]1CC[C@H]2[C@@H]3CC=C4C[C@@H](O)CC[C@]4(C)[C@H]3CC[C@]12C [27-Nor-25-ketocholesterol]	effective inhibitors of CRYAB protein aggregation	novel senolytics	
C[C@@H](CO)CCC[C@@H](C)[C@H]1CC[C@H]2[C@@H]3CC=C4C[C@@H](O)CC[C@]4(C)[C@H]3CC[C@]12C [27HC, 27-Hydroxycholesterol]	effective inhibitor of CRYAB protein aggregation	novel senolytics	Cell viability of NS and SEN IMR-90 cells, early-time point [3]: specifically kill senescent human fetal lung fibroblast; also recorded: specifically kill senescent IMR-90 cells
CC(CCCN(C)C)C1CCC2C3CC=C4C[C@@H](O)CC[C@]4(C)C3CC[C@]12C (stereo partly drawn) [(3S,10R,13R)-17-(5-(dimethylamino)pentan-2-yl)-10,13-dimethyl-2,3,4,7,8,9,10,11,12,13,14,15,16,17-tetradecahydro-1H-cyclopenta[a]phenanthren-3-ol]	effective inhibitors of CRYAB protein aggregation	novel senolytics	
C[C@H](CCC(=O)O)[C@H]1CCC2[C@@H]3CC=C4C[C@H](O)CC[C@]4(C)C3CC[C@@]21C (stereo partly drawn) [(3alpha,9xi,14xi)-3-hydroxychol-5-en-24-oic acid]	effective inhibitors of CRYAB protein aggregation	novel senolytics	
C=C1CC[C@@H](O)CC1=C/C=C1\CCC[C@]2(C)[C@@H]([C@H](C)CCCC(C)(C)O)CC[C@@H]12 [Calcifediol 25-Hydroxyvitamin D3, reference compound]	effective inhibitors of CRYAB protein aggregation	novel senolytics	
COc1cccc2c1C(=O)c1c(O)c3c(c(O)c1C2=O)C[C@@](O)(C(=O)CO)C[C@@H]3O[C@H]1C[C@H](N)[C@H](O)[C@H](C)O1 [Doxo, doxorubicin]			Relative level of p16INK4a mRNA in FAPs [7]: induced senescence; Relative level of p16INK4a mRNA in mDFs [8]: induces senescence marker, p16INK4a; Relative level of CRYAB mRNA in mDFs [9]: upregulated CRYAB; Relative level of CRYAB mRNA in FAPs [10]: significantly increased
